Experiments:
[1] = biological target: T1, ALK2 R206H (GST-tagged mutant ALK2) (Homo sapiens, UniProt Q04771, R206H); experiment: ALK binding assay (LANTHASCREEN TR-FRET competitive binding, displacement of Kinase Tracer 178); settings: ALK2 R206H, LANTHASCREEN TR-FRET competitive binding; read-out: Binding Assay (IC50)
T1 construct: purchased Carna Bioscience or ThermoFisher 09-148 or PV6232
T1 sequence (Q04771 21-509 R206H): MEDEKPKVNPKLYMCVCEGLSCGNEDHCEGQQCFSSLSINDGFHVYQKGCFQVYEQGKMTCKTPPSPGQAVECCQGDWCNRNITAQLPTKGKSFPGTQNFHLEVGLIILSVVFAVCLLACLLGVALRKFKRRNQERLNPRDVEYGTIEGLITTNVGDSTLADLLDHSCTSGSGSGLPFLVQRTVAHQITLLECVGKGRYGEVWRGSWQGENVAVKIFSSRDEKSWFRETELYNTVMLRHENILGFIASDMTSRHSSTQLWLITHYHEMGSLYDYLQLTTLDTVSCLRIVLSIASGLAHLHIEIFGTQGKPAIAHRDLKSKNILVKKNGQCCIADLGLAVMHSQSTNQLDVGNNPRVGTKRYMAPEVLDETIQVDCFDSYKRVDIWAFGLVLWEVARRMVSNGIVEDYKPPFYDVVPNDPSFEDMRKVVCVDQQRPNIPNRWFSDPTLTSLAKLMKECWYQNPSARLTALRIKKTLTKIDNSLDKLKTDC

[2] = biological target: T2, human ALK2 R206H (Homo sapiens, UniProt Q04771, R206H); experiment: Cell-based ALK2-R206H cell activity assay (Smad1-Ser463/Ser465 phosphorylation by AlphaLISA in HEK293-ALK2-R206H cells); settings: read-out: Cell Line (Cell Assay IC50)
T2 construct: expressed in transfected cells; host or cells: HEK293 (ATCC CRL1573), lentivirus transduction, blasticidin selection
T2 sequence (Q04771 21-509 R206H): T1 sequence (Q04771 21-509 R206H)
Method in brief: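 Stable HEK293 cells expressing C-terminally FLAG-tagged human ALK2 R206H (lentiviral, blasticidin-selected) were treated with compounds in 10-point, 3-fold dilutions from 10 μM or 1 μM top, in duplicate. Smad1 Ser463/Ser465 phosphorylation was read by AlphaLISA.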

Row | IC50 [1] [nM] | IC50 [2] [nM] | Structure (SMILES)
1 | < 10 | < 100 | COC1(c2ccc(-c3cc4c(N5CCN(C(=O)C6CC6)CC5)ccnn4c3)cc2)CN(C(C)C)C1 [Compound 521]
2 | < 10 | < 100 | CC(C)N1CC[C@](O)(c2ccc(-c3cc4c(N5CCN(C(=O)C6CC6)CC5)ccnn4c3)cc2)C1 [Compound 522]
3 | < 10 | < 100 | CC(C)N1CC[C@@](O)(c2ccc(-c3cc4c(N5CCN(C(=O)C6CC6)CC5)ccnn4c3)cc2)C1 [Compound 523]
4 | < 10 | < 100 | CCOC1(c2ccc(-c3cc4c(N5CCN(C(=O)C6CC6)CC5)ccnn4c3)cc2)CCNCC1 [Compound 524]
5 | < 10 | < 100 | CC(C)N1CC[C@@](O)(c2ccc(-c3cc4c(N5CCN(C(=O)C6CC6)CC5)ccnn4c3)nc2)C1 [Compound 526]
6 | < 10 | < 100 | CC(C)N1CC[C@](O)(c2ccc(-c3cc4c(N5CCN(C(=O)C6CC6)CC5)ccnn4c3)nc2)C1 [Compound 527]
7 | < 10 | < 100 | CCCNC(=O)N1CCN(c2ccnn3cc(-c4ccc([C@@H]5CCN(C(C)C)C5)cc4)cc23)CC1 [Compound 530]
8 | < 10 | < 100 | CC(C)NC(=O)N1CCN(c2ccnn3cc(-c4ccc([C@@H]5CCN(C(C)C)C5)cc4)cc23)CC1 [Compound 531]
9 | < 10 | < 100 | CCCNC(=O)N1CCN(c2ccnn3cc(-c4ccc([C@H]5CCN(C(C)C)C5)cc4)cc23)CC1 [Compound 532]
10 | < 10 | < 100 | CC(C)NC(=O)N1CCN(c2ccnn3cc(-c4ccc([C@H]5CCN(C(C)C)C5)cc4)cc23)CC1 [Compound 533]
11 | < 10 | < 100 | CCOC(=O)N1CCN(c2ccnn3cc(-c4ccc(C5CCN(C(C)C)CC5)cc4)cc23)CC1 [Compound 534]
12 | < 10 | < 100 | CCNC(=O)N1CCN(c2ccnn3cc(-c4ccc(C5CN(C(C)C)CCN5)cc4)cc23)CC1 (stereo not drawn) [Compound 537]
13 | < 10 | < 100 | CCNC(=O)N1CCN(c2ccnn3cc(-c4ccc([C@@H]5CCCN(C(C)C)C5)cn4)cc23)CC1 [Compound 538]
14 | < 10 | < 100 | CCNC(=O)N1CCN(c2ccnn3cc(-c4ccc([C@H]5CCCN(C(C)C)C5)cn4)cc23)CC1 [Compound 539]
15 | < 10 | < 100 | CC(C)NC(=O)N1CCN(c2ccnn3cc(-c4ccc(C5(O)CN(C(C)C)C5)cc4)cc23)CC1 [Compound 540]
16 | < 10 | < 100 | COC1(c2ccc(-c3cc4c(N5CCN(C(=O)NC(C)C)CC5)ccnn4c3)cc2)CCNCC1 [Compound 541]
17 | < 10 | < 100 | CO[C@]1(c2ccc(-c3cc4c(N5CCN(C(=O)NC(C)C)CC5)ccnn4c3)cc2)CCCNC1 [Compound 542]
18 | < 10 | < 100 | CO[C@@]1(c2ccc(-c3cc4c(N5CCN(C(=O)NC(C)C)CC5)ccnn4c3)cc2)CCCNC1 [Compound 543]
19 | < 10 | < 100 | CCOC(=O)N1CCN(c2ccnn3cc(-c4ccc([C@@H]5CCCN(C(C)C)C5)cn4)cc23)CC1 [Compound 544]
20 | < 10 | < 100 | CCOC(=O)N1CCN(c2ccnn3cc(-c4ccc([C@H]5CCCN(C(C)C)C5)cn4)cc23)CC1 [Compound 545]
21 | < 10 | < 100 | CCNC(=O)N1CCN(c2ccnn3cc(-c4ccc(N5CCN(C(C)C)CC5)cn4)cc23)CC1 [Compound 546]
22 | < 10 | > 500 | CCNC(=O)N1CCN(c2ccnn3cc(-c4ccc(C5CCN(C(C)C)CC5)nn4)cc23)CC1 [Compound 548]
23 | < 10 | < 100 | CCOC(=O)N1CCN(c2ccnn3cc(-c4ccc([C@@]5(O)CCN(C(C)C)C5)cc4)cc23)CC1 [Compound 550]
24 | < 10 | < 100 | CCOC(=O)N1CCN(c2ccnn3cc(-c4ccc([C@]5(O)CCN(C(C)C)C5)cc4)cc23)CC1 [Compound 551]

Reference: patent publication US10233186B2, “Inhibitors of activin receptor-like kinase” (BLUEPRINT MEDICINES CORPORATION, priority 2016, dated 2019)
